Biological target: T1, PsPto-PscA-LBD (Pseudomonas syringae group genomosp. 3, UniProt Q882Z2)
T1 construct: host E. coli BL21(DE3)
Assay: isothermal titration calorimetry
Format: binding
Settings: read-out: Mean KD (μM) ± SEM
Source text: isothermal titration calorimetry on PsPto-PscA-LBD

T1 sequence (Q882Z2 30-278): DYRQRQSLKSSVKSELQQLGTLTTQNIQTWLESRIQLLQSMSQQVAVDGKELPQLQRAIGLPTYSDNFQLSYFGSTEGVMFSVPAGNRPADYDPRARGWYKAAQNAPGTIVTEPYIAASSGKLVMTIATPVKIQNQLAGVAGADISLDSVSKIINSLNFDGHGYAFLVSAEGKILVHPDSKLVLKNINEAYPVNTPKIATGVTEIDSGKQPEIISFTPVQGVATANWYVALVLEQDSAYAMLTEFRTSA

Structure (SMILES)	Kd [µM]
N[C@@H](CC(=O)O)C(=O)O [L-Asp]	1.2 ± 0.1
N[C@@H](CCC(=O)O)C(=O)O [L-Glu]	3.4 ± 0.1
N[C@H](CC(=O)O)C(=O)O [D-Asp]	1.2 ± 0.1

From article PMC6775455, “Chemoperception of Specific Amino Acids Controls Phytopathogenicity in Pseudomonas syringae pv. tomato” (mBio, 2019)
